# Assay results taken from patent US20090074885A1, “Reversible Hydrophobic Modification of Drugs for Improved Delivery to Cells” (Roche Madison Inc., priority 2003, published 2009).
# Key:
# Hepa 1-6 cells = experiment: Calcein AM live cell marker after prodrug treatment; type: cell-based, mouse; conditions: following treatment with prodrug
# Protocol: (§1) In Vitro cellular uptake of PI, RRH-PI compounds, and IV evaluated by fluorescence measurements. PI and the RRH-prodrugs were tested for cellular uptake on several cell lines which included B16 (murine melanoma), Hepa 1-6 (mouse hepatoma), SK-OV-3 (also SKOV-3, human ovarian carcinoma), OVCAR-3 (human ovarian carcinoma), Jurkat (human T-lymphocyte), 293 (human embryonic kidney), and MC38 (mouse colon carcinoma) cells. Adherent cells were plated at 2.5×10^5 cells/well on 6-well plates 24 h prior to testing. The growth media was removed from individual wells and the drug/prodrug was immediately added to the well with the mixing chamber. Final drug/prodrug concentrations were 0.150 μmol in 220 μl total volume (20 μl OS, 200 μl ITG). After 30 sec the drug solution was removed (aspirated) and 2 ml complete media was added to the cells. […] Fluorescent microscopy studies were conducted with a three laser LSM 510 confocal microscope, an Axiovert S100 fluorescent microscope, or an Axioplan2 fluorescent microscope (all Zeiss) equipped with filter sets for the rhodamine fluorescence channel (λex=BP 450/12, λem=LP 590 nm filter set) and the fluorescein fluorescent channel (λex=BP 546/90, λem=LP 515 nm filter set). […]
# cells [1] = experiment: SYTOX Green dead cell indicator after prodrug treatment; type: cell-based; conditions: following treatment with prodrug
# Protocol: as §1
# cells [2] = experiment: Testing of mixing chamber: PI uptake in cells; type: cell-based; conditions: PI in DMF and isotonic glucose through mixing chamber
# Text: Development of a Mixing Chamber. Due to the instability of the RRH-PI prodrugs in water, it was necessary to dissolve them in a small amount of pharmaceutically acceptable organic solvent (OS) and mix them with an aqueous solution immediately prior to delivery. Rapid and efficient mixing was critical for optimum delivery and minimalization of toxicity due to the organic solvent. A passive mixing chamber with colliding flows was utilized to mix the drug/RRH-prodrug (dissolved in a carrier solvent such as an organic solvent) with an aqueous solution immediately prior use. Two syringe pumps (Harvard Pumps, PHD 2000) were utilized to deliver the solutions to the mixing chamber. Typically mixtures were 1:10 by volume with 0.67 μl of PI or RRH-PI/OS solution (7.48 mM) diluted with 6.7 μl of isotonic glucose (ITG), buffer, or media per sec, for a total delivery volume of 220 μl (0.150 μmol of PI or RRH-PI) over 30 sec (final organic solvent concentration of 9.1% by vol.).
# The mixing chamber (FIG. 3) was constructed from 18 G stainless steel tubing (38 mm in length) by drilling a 0.2 mm hole at a 45 degree angle in the tubing wall and then inserting 30 G stainless steel tubing. The 30 G stainless tubing was angled and advanced into the 18 G tubing so as to be centered within the larger tubing and then soldered in place. […]
# SK-OV-3 ovarian tumors = experiment: Intraperitoneal perfusion chemotherapy (IPPC) in SK-OV-3 mouse model; type: in vivo
# Protocol: In a separate experiment, ovarian cancer development was monitored until signs of ascitis (4-5 wks). At this time, a test IPPC injection was conducted with C12PMMA-PI by adapting methodology typically used for peritoneal perfusion. Briefly, two 23 G Abbocath-T effluent catheters with multiple perforations were inserted into the peritoneal cavity and advanced to the region of the ovaries on both sides of the vertebra. The ascitic fluid was slowly aspirated with minimal negative pressure. Then an additional 23 G perforated catheter was inserted into abdomen and positioned on top of abdominal organs. 1 mL of drug/DMF/ITG solution was infused over 1 min, followed by repeated gentle massage. 5-7 min post administration, peritoneal fluid was again aspirated, and the peritoneal cavity was perfused with 10 mL of PBS via the top catheter, together with simultaneous aspiration via the lower two catheters. Special care was taken to avoid elevated abdominal pressure during the procedure. […] Confocal microscopy indicated a similar staining pattern as observed previously, with strong propidium iodide nuclear labeling of all of the outer cells exposed to peritoneal cavity, including ovarian tumors. […] All cells exposed to peritoneal cavity and thereby to the prodrug solution indicated prodrug uptake and staining, including: mesentery cells, outer layer of cells of abdominal organs, and disseminated peritoneal ovarian tumors. The tumor lesions still appeared to be more susceptible to drug uptake, indicating both greater tissue penetration and intense PI^+-staining as compared to normal abdominal tissue, with the exception of the mesentery which was also was heavily PI^+.
# MC38 tumor = experiment: Survival after LABI in MC38 tumor bearing mice; type: in vivo, C57BL mice; conditions: 0.150 μmol by LABI, compared to hydrolyzed C12PMMA-PI
# Protocol: FIG. 13. Days of survival following LABI delivery of C12PMMA-PI (III) or hydrolyzed C12PMMA-PI to C57BL mice. Following three weeks of MC38 tumor development C12PMMA-PI or Hydrolyzed C12PMMA-PI (0.150 μmol in 20 μl DMSO, 200 μl ITG) were delivered by LABI. The mouse abdomen was closed 4 min after drug treatment and the animals were monitored for survival time.
# In vivo antitumor effect following a liver arterial bolus injection with a RRH-PI to MC 38 tumor bearing mice. LABI was conducted as previously described in order to monitor the antitumor effect of an RRH-PI prodrug. In the experiment, III (n=11) or hydrolyzed C12PMMA-PI (n=9) were injected as previously described, the mouse abdomen was closed after drug treatment and the animals were monitored for survival time. Statistical analysis was conducted using a t-test (two tailed distribution and two sample—unequal variance, Excel).
smiles,measurement,setting,value
"CCCCCCCCCCCCCCCCCC[Si](C)(C)Nc1ccc2c(c1)c(-c1ccccc1)[n+](CCC[N+](C)(CC)CC)c1cc(N[Si](C)(C)CCCCCCCCCCCCCCCCCC)ccc21.[I-].[I-] [II, 3,8-bis[((dimethyl)octadecylsilazyl)amine] 5-(3,3-diethyl-3-methylammoniumpropyl) 6-phenyl phenanthridinium diiodide]",cells both PI and calcein positive,Hepa 1-6 cells,approximately 86%
same,cells both PI-positive and SYTOX Green positive,cells [1],less than 5%
"CC[N+](C)(CC)CCC[n+]1c(-c2ccccc2)c2cc(N)ccc2c2ccc(N)cc21.[I-].[I-] [PI, Propidium iodide, reference compound]",PI uptake in cells,cells [2],very little PI uptake in cells
"CCCCCCCCCCCCNC(=O)CCC(=CCC(=O)O)C(=O)Nc1ccc2c(c1)c(-c1ccccc1)[n+](CCC[N+](C)(CC)CC)c1cc(NC(=O)C(=CCC(=O)O)CCC(=O)NCCCCCCCCCCCC)ccc21.[I-].[I-] [III, 3,8-bis-[2-(2 carboxyethylidene)-4-(dodecarbamoyl)-1-oxo-butylamine] 5-(3,3-diethyl-3-methylammoniumpropyl) 6-phenyl phenanthridinium diiodide]",labeling of microtumors (0.1-1 mm),SK-OV-3 ovarian tumors,heavily labeled throughout the tumor
same,depth of labeling of large tumors (5-7 mm),SK-OV-3 ovarian tumors; 4-5 wks after inoculation,about 500 microns
same,survival of the perfusion procedure,SK-OV-3 ovarian tumors; sacrificed 3-5 h later,All animals survived the perfusion well
same,survival,MC38 tumor,increased survival
